{
  "source": "patent US3968233A",
  "about": "“α-Amino-γ-butyrolactones as sedatives” (priority 1975, dated 1976)",
  "key": {"[1]": {"assay": "Influence on amphetamine-induced hypermobility", "assay_type": "in vivo, mouse", "settings": "d-amphetamine sulfate 5 mg/kg i.p. alone", "procedure": "Six groups of 4 mice each were treated with 5 mg/kg d-amphetamine sulfate by intraperitoneal administration. Six groups of 4 animals each received the same dose of d-amphetamine sulfate plus 250 mg/kg of AP-28 intraperitoneally 15 minutes after d-amphetamine sulfate; six more groups of four animals each received saline solution and served as control animals. […] The number of times each animal crossed the light beam throughout the 10-minute test was noted."}, "[2]": {"assay_type": "in vivo, mouse", "settings": "control experiments; 95-percent confidence limits", "procedure": "This type of antagonism was evaluated in the mouse in three ways, namely: (1) protection from death from one hypodermic injection of strychnine: (2) evaluation of the LD50 of strychnine in mice both treated and untreated with AP-28, and (3) influence on the time required to cause animals to die by slow intravenous perfusion of strychnine. […] Groups of six mice were used. (2) increasing amounts of strychnine sulfate were injected hypodermically. In two experiments 200 or 400 mg/kg of intraperitoneal AP-28 were given 30 minutes prior to strychnine injection and the LD50 was calculated. The following results were obtained (95-percent confidence limits): […]"}, "[3]": {"assay": "Enhancement of the hypnotic effect of sodium pentobarbital", "assay_type": "in vivo, mouse", "settings": "sodium pentobarbital 40 mg/kg i.p. alone", "procedure": "Forty mg/kg of sodium pentobarbital was injected intraperitoneally into mice and note was taken of animals losing the righting reflex and for how long. Other mice received a preliminary treatment with AP-28 at a dosage of 250 and 500 mg/kg, intraperitoneally, and thereafter sodium pentobarbital was given to them."}, "[4]": {"assay": "Protective effect against electroshock (MES)", "settings": "phenobarbital Na 40 mg/kg i.p., 10 minutes before electroshock"}},
  "note": "Structures can show the parent of a compound that is named as a salt.",
  "data": [
    {"smiles": "C[C@H](N)Cc1ccccc1", "note": "[d-amphetamine, d-amphetamine sulfate, reference compound]", "values": [
      {"measurement": "Mean number of crossings (± SE) in 10 minutes", "setting": "[1]", "result": "657 ± 59"}
    ]},
    {"smiles": "O=C1C[C@@H]2OCC=C3CN4CC[C@]56c7ccccc7N1[C@H]5[C@H]2[C@H]3C[C@H]46", "note": "[Strychnine, strychnine sulfate]", "values": [
      {"measurement": "LD50 of strychnine", "setting": "[2]", "result": "0.83 (1.02-0.67) mg/kg"}
    ]},
    {"smiles": "CCCC(C)C1(CC)C(=O)NC(=O)NC1=O", "note": "(stereo not shown) [sodium pentobarbital, reference compound]", "values": [
      {"measurement": "Animals under hypnosis/treated", "setting": "[3]", "result": "3/4"},
      {"measurement": "Duration of hypnosis in minutes (m ± SE)", "setting": "[3]; zero assigned to animals not losing righting reflex", "result": "3.25 ± 3.4", "unit": "min"}
    ]},
    {"smiles": "CCC1(c2ccccc2)C(=O)NC(=O)NC1=O", "note": "[Phenobarbital Na, Phenobarbital sodium, reference compound]", "values": [
      {"measurement": "Number animals died", "setting": "[4]", "result": "0/8"},
      {"measurement": "Number animals with clonic convulsions", "setting": "[4]; in parentheses number treated", "result": "8(8)"},
      {"measurement": "Number animals with tonic convulsions", "setting": "[4]; in parentheses number treated", "result": "0(8)"}
    ]}
  ]
}
